Values of other authors as cited in patent US10543184B2, “Method to treat functional somatic syndromes with combination of aciclovir and celecoxib” (INNOVATIVE MED CONCEPTS, LLC, priority 2012, dated 2020).

Test system: fibromyalgia patients
Details: Kendall et al., J. Rheumatology (2004) 31, 783-784

For `CC(C)[C@H](N)C(=O)OCCOCn1cnc2c(=O)[nH]c(N)nc21` [valacyclovir], the “Outcome of treating fibromyalgia patients” value is listed as “not successful”.
